Reference: patent US10899763B2, “Crystalline forms of salts of fused penta-cyclic dihydrodiazepinocarbazolones, and uses thereof” (BEIGENE, LTD., priority 2017, dated 2021)
Like-named read-outs stand apart in the source and are kept apart here.

How the values were obtained:
[1] = test system: MDA-MB-436 (BRCA1 Deficient); assay: Synthetic lethality, CellTiter-Glo cell viability, MDA-MB-436; assay type: cell-based, human; conditions: 7-day exposure, table, read-out: EC50 for growth inhibition
Method: (§1) MDA-MB-231 cells that is not BRCA gene mutant or other homologous recombination deficient were maintained in DMEM supplemented with fetal bovine serum (10% FBS), 100 units/ml penicillin and 0.1 mg/ml streptomycin. BRCA1-deficient cell line MDA-MB-436 was maintained in RPMI-1640 supplemented with 10% FBS, 100 units/ml penicillin and 0.1 mg/ml streptomycin. Both two cell lines were kept at 95% humidity and 5% CO2 in a 37° C. incubator.
(§2) The number of tumor cells seeded per well of a 96-well plate was optimized for each cell line to ensure logarithmic growth over the 7 days treatment period. Cells were left to attach for 16 hours and then treated with specific concentrations of test compounds. Following a 7-day exposure to the compound, the growth-inhibitory activity of compounds was determined using CellTiter-Glo luminescent cell viability assay (Promega). Luminescent signal was measured using PHERAstar FS reader (BMG Labtech). Cell viability was expressed as relative to mock treatment control. EC50 values for growth inhibition were calculated by fitting dose-dependent data to the four-parameter logistic model using XLfit software.

MDA-MB-231 cells = assay: Synthetic lethality, CellTiter-Glo cell viability, MDA-MB-231; assay type: cell-based; conditions: MDA-MB-231, 7-day exposure, table; read-out: EC50 for growth inhibition
Method: as §1, §2

[2] = Solid-state stability test; assay type: physicochemical; conditions: HPLC
Method: Each sample (Forms A, B or C2) was exposed to both conditions of 25° C./60% RH and 40° C./75% RH. After one-week storage, all the samples were characterized by XRPD to test any solid form change and by HPLC to check the purity change.

[3] = Kinetic solubility test in bio-relevant media and H2O; assay type: physicochemical; conditions: for dissolution profile in bio-relevant media (FaSSIF and FeSSIF): sampled at 1 hr, 4 hrs and 24 hrs; for dissolution profile in bio-relevant media (FaSSIF and FeSSIF) / solubility: RT; for solubility: thermodynamic from solid
Method: About 20 mg of each sample (Forms A, B or C2) was equilibrated in 3.0 mL of three bio-relevant media, i.e., fasted state small intestinal fluid (FaSSIF), Fed State Simulating Intestinal Fluid (FeSSIF) and Simulated Gastric Fluid (SGF), or H2O into each 4-mL plastic vial. The suspensions were mixed via triturating (25 rpm) at RT, with each suspension sampled at the end of 1 hr, 4 hrs and 24 hrs, respectively.

[4] = Hygroscopicity test (DVS isotherm, XRPD); assay type: physicochemical; conditions: for Water uptake % at 80% RH, Adsorption / Water uptake % at 80% RH, Desorption: DVS at 25° C.; for Hygroscopicity: concluded from the water uptake from adsorption cycle
Method: To investigate the solid form stability as a function of humidity, DVS isotherm plot (at 25° C.) and XRPD pattern were collected, see Table 11. The uptake percentage differences between desorption and adsorption are speculated to be related to the replacement of possible residual solvent with moisture.

[5] = Solid form change on heating (XRPD, VT-XRPD); assay type: physicochemical
Method: Associated with the results of TGA/DSC and solution NMR, Form B was confirmed to be an anhydrate.
To confirm the form change during heating of Form C2, VT-XRPD was conducted under protection of nitrogen.

[6] = Phase I clinical safety study; assay type: in vivo; conditions: capsules, 2.5-120 mg bid, 25 subjects
[7] = test system: intracellular PARP activity in HeLa cells; assay: Intracellular target inhibition: cellular PAR formation in hydrogen peroxide treated HeLa cells; assay type: cell-based; conditions: read-out: IC50 (nM) in PARylation assay
Method: The assay was performed as follows:
Cells were plated into a 96-well plate with clear bottom and black wall at a density of 5000 cells per well (100 μL). […] In the following day, H2O2 solution in PBS (final concentration 200 μM) was added and the plate was kept at 37° C. for 5 minutes. Then the medium was gently removed by plate inversion, and the cells were fixed by ice-cold MeOH at −20° C. for 20 minutes. […] After removal of solution and repeated wash with PBS, the PAR polymer level was estimated by ArrayScan VTI (ThermoFisher). Percent inhibition was determined on the basis of the residual enzyme activity in the presence of increasing PARP inhibitor concentration. IC50 values were calculated by fitting dose-dependent data to the four-parameter logistic model using XLfit software.

[8] = FaSSIF, read-out: solubility in FaSSIF
[9] = FeSSIF, read-out: solubility in FeSSIF

In the case of O=C(c1cc(Cc2n[nH]c(=O)c3ccccc23)ccc1F)N1CCN(C(=O)C2CC2)CC1 [Olaparib], the EC50 [1] is reported as 21 ± 7 nM and the EC50 (MDA-MB-231 cells) is reported as about 5 µM.

With C[C@]12CCCN1CC1=NNC(=O)c3cc(F)cc4[nH]c2c1c34 [Form A] the “Purity of initial(%)” value ([2]; 25° C./60% RH (7 days)) was 100.1%, the “Purity of initial(%)” value ([2]; 40° C./75% RH (7 days)) was 100.1% and the “dissolution profile in bio-relevant media (FaSSIF and FeSSIF)” value (“dissolution profile” below) [3] was “good solubility was observed in FaSSIF and FeSSIF at the first time point, but the values went down after equilibrated for a longer time”. For the same molecule, the “dissolution profile” value ([3]; listed as phosphate salt of Compound 1) was “higher solubility at the first time point, but the values went down after equilibrated for a longer time”, the “Water uptake % at 80% RH, Adsorption” value [4] was 1.9% and the “Water uptake % at 80% RH, Desorption” value [4] was 2.1%. For the same molecule, the Hygroscopicity [4] was “Hygroscopic” and the “form change after heating and cooling at ambient conditions (XRPD)” value ([5]; heated to 170° C.) was “No form change”.

With C[C@]12CCCN1CC1=NNC(=O)c3cc(F)cc4[nH]c2c1c34.O=C(O)/C=C/C(=O)O [Form C3] the “time to convert back to Form C2 after exposure to ambient conditions” value ([5]; ~25° C./70% RH) was at most 1 h.

In the case of C[C@]12CCCN1CC1=NNC(=O)c3cc(F)cc4[nH]c2c1c34 [Crystalline Sesqui-Hydrate of Compound 1], the solubility [3, 8] is reported as under 100 µg/mL, the solubility [3, 9] is reported as 1000 µg/mL and the “clinical safety and tolerability” value [6] is reported as “safe and well tolerated”.

For C[C@]12CCCN1CC1=NNC(=O)c3cc(F)cc4[nH]c2c1c34.O=C(O)/C=C/C(=O)O [Form C2], the “Purity of initial(%)” value ([2]; 25° C./60% RH (7 days)) was 100.2%, the “Purity of initial(%)” value ([2]; 40° C./75% RH (7 days)) was 100.0% and the “dissolution profile” value [3] was “good solubility was observed in FaSSIF and FeSSIF at the first time point, but the values went down after equilibrated for a longer time”. The “dissolution profile” value ([3]; listed as fumarate salt of Compound 1) was “higher solubility at the first time point, but the values went down after equilibrated for a longer time”, the “Water uptake % at 80% RH, Adsorption” value [4] was 0.2% and the “Water uptake % at 80% RH, Desorption” value [4] was 0.3%. For the same molecule, the Hygroscopicity [4] was “Slightly hygroscopic”, the “physical stability at ambient conditions” value ([5]; ambient conditions) was “good physical stability” and the “form change during heating (VT-XRPD)” value ([5]; heating to 140° C. and cooling back to 30° C. with N2 flow) was “a new form named as Form C3 was observed”.

For C[C@]1(c2nc3c(C(N)=O)cccc3[nH]2)CCCN1 [Veliparib], the EC50 [1] was 820 ± 300 nM, the IC50 [7] was 2.66 nM and the EC50 (MDA-MB-231 cells) was over 10 µM.

In the case of C[C@]12CCCN1CC1=NNC(=O)c3cc(F)cc4[nH]c2c1c34.O=C(O)/C=C\C(=O)O [Form B], the “Purity of initial(%)” value ([2]; 25° C./60% RH (7 days)) is reported as 100.2%, the “Purity of initial(%)” value ([2]; 40° C./75% RH (7 days)) is reported as 100.1% and the “dissolution profile” value [3] is reported as “Steady dissolution rate”. The “dissolution profile” value ([3]; listed as maleate salt of Compound 1) was “steady dissolution profiles”, the solubility [3, 8] was about 200 µg/mL and the solubility [3, 9] was about 500 µg/mL. The “physical stability of the solid suspended in the media” value ([3]; up to 24 hours) was “physically stable”, the “Water uptake % at 80% RH, Adsorption” value [4] was 0.7% and the “Water uptake % at 80% RH, Desorption” value [4] was 2.4%. The Hygroscopicity [4] was “Slightly hygroscopic” and the “form change after heating and cooling at ambient conditions (XRPD)” value ([5]; heated to 150° C.) was “No form change”.
